The subject of data set [1] is VSV. It is filed as cell-based, vesicular stomatitis virus.
Data set [2] deals with red cells. The data set can be described thus: Red cell hemolysis at day 42 for DMMB+light treated samples in a flow system. As to conditions: for Hemolysis (%), day 42: approximately 3.5 μM DMMB, no blocker, stored at 1-6° C.
The subject of data set [3] is red blood cells. Conditions: with type 1/type 2 quenchers, optimized conditions; cited from earlier work.

Data on 3 compounds can be found in US20010046662A1, “Method of inactivating pathogens in a red blood cell-containing composition” (priority 2000, published 2001).

“And” between values parts separate entries of the source, which are not always exact repeats. Equal entries are not always repeated.

For `Cc1cc(N(C)C)cc2[s+]c3cc(N(C)C)cc(C)c3nc12` [DMMB, 1,9-dimethylmethylene blue], the “increase in VSV inactivation with greater light fluences” value in data set [1] stood at 50%. For the same compound, the “Hemolysis (%), day 42” value in data set [2] (light fluence 226 mJ/cm^2) was 2.8% and 2.84%; in data set [2] (light fluence 889 mJ/cm^2), 14.5% and 14.53%; in data set [2] (light fluence 1597 mJ/cm^2), 12.10%. Besides, in data set [2] (samples lacking riboflavin, 2.8 to 14.5%), the “increase in hemolysis with greater light fluences” value worked out at 500%.

As for `Cc1cc2nc3c(=O)[nH]c(=O)nc-3n(C[C@H](O)[C@H](O)[C@H](O)CO)c2cc1C` [riboflavin, 7,8-dimethyl-10-ribitylisoalloxazine], the “enhancement of VSV inactivation by addition of the blocker” value in data set [1] is over 4.1 log10.

As to phthalocyanine 4, the “cells that hemolyze after 21 days of storage” value in data set [3] is on record as “about 2%”.
